# Laboratory results reported in patent US11827690B2, “ApoC-II mimetic peptides” (THE UNITED STATES OF AMERICA, as represented by the …, priority 2017, dated 2023).
# “Also recorded” adds a separate entry of the source.
# Experiments:
# [1] = biological target: T1, LPL inhibited by apoC-III (Bos taurus, UniProt P11151); assay: LPL activation assay with high TG human plasma as substrate and recombinant apoC-III as an inhibitor; format: biochemical; conditions: for effect on inhibition of LPL by apoC-III: high TG human plasma substrate
# T1 sequence (P11151 29-478): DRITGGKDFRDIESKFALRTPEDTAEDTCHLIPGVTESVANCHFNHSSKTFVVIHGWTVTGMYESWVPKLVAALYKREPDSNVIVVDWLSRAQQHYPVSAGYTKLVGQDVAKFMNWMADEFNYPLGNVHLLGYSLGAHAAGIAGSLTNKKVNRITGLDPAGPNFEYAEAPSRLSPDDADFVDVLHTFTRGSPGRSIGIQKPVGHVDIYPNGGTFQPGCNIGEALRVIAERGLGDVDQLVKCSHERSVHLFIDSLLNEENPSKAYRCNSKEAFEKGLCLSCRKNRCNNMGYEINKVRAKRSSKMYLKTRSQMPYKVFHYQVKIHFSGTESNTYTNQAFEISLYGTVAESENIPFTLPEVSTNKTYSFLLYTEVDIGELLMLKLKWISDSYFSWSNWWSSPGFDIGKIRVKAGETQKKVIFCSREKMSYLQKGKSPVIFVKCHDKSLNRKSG
# Procedure: LPL activity assay: 10 μL of Intralipid, human plasma sample, or mouse plasma sample was added in each well using repeater pipette. 10 μL (or 15 μL in the wells with no LPL control) of PBS and 10 μL of 1% BSA was added in each well using repeater pipette. 10 μL of peptides were added to corresponding wells in vertical triplicates (lowest concentration is on a left, highest is on the right). The plate was spun down at 1000 RPM for 10 seconds to mix and to remove the solutions from the wall of each well. The plate was put on ice and 5 μL of LPL was added using repeater pipette. The plate was spun down again at 1000 RPM for 10 seconds. The plate was covered and put back on ice for an incubation of 30 min. The plate was then moved to 37° C. and incubated for 1 hour.
# Free fatty acids (NEFA) assay: 45 μL of 5 nmoL standard and 0 nmoL control (0.2% BSA) were added to corresponding wells. 225 μL of reagent A was added in each well using the reagent tray and 12-channel pipette. The plate was incubated for 10 min before 75 μL of reagent B was added to each well using the reagent tray and 12-channel pipette. The plate was not covered due to the high volume. The absorbance at 550 nm and 660 nm was measured.
# LPL assay was performed using Intralipid, high TG human plasma (1:50 dilution), or apoC-III transgenic mouse plasma (1:50 dilution). When Intralipid was used as a substrate, 25 or 50 μM recombinant ApoC-III was added as an inhibitor. When the high TG human plasma was used as a substrate, 25 or 50 μM recombinant ApoC-III was added as an inhibitor with or without pre-incubation at 37° C. for 1 hour. An apoC-II mimetic peptide was added at various concentrations.
# [2] = system: wild-type mice; assay: serum TG of wild-type mice after Intralipid injection with or without LPL inhibitor Triton WR1339; format: in vivo
# Procedure: In some experiments, each animal received 20% Intralipid (FDA approved, Fresenius Kabi, Uppsala, Sweden) in a single dose either by oral gavage (using special sterile single-use non-toxic animal feeding needles) in a dose 10-20 μL/gram body weight (B.W.) (Tuzcu et al. Drug Chem Toxicol 37: 261-267, 2014; Kusminski et al. Nature Medicine 18: 1539-1549, 2012), or by intraperitoneal injection in a single bolus of 0.1-1.0 mL (Mahadero et al. American J Surgery 164: 45-50, 1992), or by intragastric administration of a dietetic commercially-available liquid oil (food grade vegetable, corn, soy or olive oil) in a single dose 10-20 μL/gram body weight. These oils were a source of TG—when absorbed TG tends to be broken down within 3 h (peak in 30 min) (Kritchevsky Nutritional Biochemistry 6:172-178, 1995). Blood samples (20-30 μL) were obtained from the retro-orbital plexus at time points: −1 h, 0 h, 1 h, 3 h, 6 h and 24 h for measurements of lipids. Mice were returned to metabolic cages after the 6 h time point where the food was put back. Once the study was completed (after 24 hours from the fat administration), mice were euthanized and organs collected.
# The ability of apolipoprotein mimetic peptides to normalize hypertriglyceridemia in mice treated with an LPL inhibitor, Tyloxapol, in presence of high TG provided by 20% Intralipid, was assessed.
# Mice were fasted overnight (approximately 12 hours) before the study and 6 hours during the study, the next day. The apo mimetic peptides were synthetically produced and free of biological contamination (not available as FDA approved compounds/treatment). Peptides were produced and used in sterile conditions and filtered by 0.2 nm filter before injections in a single dose 1-5 μmol/kg B.W. either S.C. or I.P. or I.V. (in a sterile, pharmaceutical grade PBS solution at a volume ≤200 μL). Next, 10% Tyloxapol (Triton WR-1339, T-0307, Sigma-Aldrich) was injected I.V. in a single dose of 5 μL/gram B.W., as described earlier (Zhang Y. L. et al., J Biol Chem. 279: 19362-19374, 2004; Abe C. et al., J. Nutr. 137: 345-350, 2007). […] Finally, each animal received 20% Intralipid (FDA approved, Fresenius Kabi, Uppsala, Sweden) in a single dose either by oral gavage (using special sterile single-use non-toxic animal feeding needles)—in a dose 10-20 μL/gram B.W. (Tuzcu K. et al., Drug Chem Toxicol., 37: 261-267, 2014, Kusminski C. et al., Nature Medicine. 18: 1539-1549, 2012), or by intraperitoneal injection—in a single bolus of 0.1-1.0 mL (Mahadero G. et al., American J Surgery. 164: 45-50, 1992). Blood samples (20-30 μL) were obtained from the retro-orbital plexus at time points: −1 h, 0 h, 1 h, 3 h, 6 h and 24 h for measurements of lipids. Mice were returned to metabolic cages after the 6 h time point where the food was put back. Once the study was completed (after 24 hours from the Intralipid administration), mice were euthanized and organs collected.
# [3] = system: VLDL isolated from human plasma; assay: ApoC-III displacement study in VLDL isolated from human plasma; format: binding
# Procedure: VLDL or chylomicrons isolated from human plasma were incubated with an apoC-II mimetic peptide for 1 hour at 37° C. and washed 3 times with PBS using spin filter with 100 kDa cutoff membrane. […] ApoC-I, apoC-II, apoC-III, and apoE bands were identified by their corresponding size.
Sequence,influence of pre-incubation of apoC-III with human plasma on peptide effect [1],"concentration at which it overcame the inhibitory effect of apoC-III ([1]; 50 μM apoC-III, FIG. 32)","concentration at which it started to affect lipolysis ([1]; 50 μM apoC-III, FIG. 32) [µM]",effect on inhibition of LPL by apoC-III [1],effect on inhibition of LPL by apoC-III ([1]; listed as ApoC-II-a),block of rise in serum TG after IP injection of Intralipid ([2]; co-injected with the LPL inhibitor Triton WR1339),affinity for the VLDL compared with the apolipoproteins [3],"selectivity of apolipoprotein displacement ([3]; MALDI-TOF mass spectrometry, FIG. 29A)","binding of peptide to VLDL versus concentration ([3]; MALDI-TOF, FIG. 29B)",effect on inhibition of LPL by Triton ([2]; FIG. 35B),"serum TG increase after Intralipid injection ([2]; intraperitoneal peptide, presence or absence of Triton, FIG. 35B)","serum TG increase after Intralipid injection ([2]; repeat-dose study, peptide IP 1 hour after Intralipid, 0.25 and 1 μmole/kg, FIG. 46B)",apoC-II displacement in VLDL ([3]; FIG. 49),apoC-III displacement in VLDL ([3]; SDS PAGE)
"DWLKAFYDKVAEKLKEAFPAMSTYTGIFTDQVLSVLKGEE (listed as Homo sapiens) [apoC-II-a, excluded from the claimed peptides]",did not change the effect,about 0.2 μM,0.01,further facilitated lipolysis,overcomes the inhibition by apoC-III,about 50%,higher affinity for the VLDL than the apolipoproteins,"selectively replaced apoC-III and apoC-I, but not apoC-II; also recorded: selectively displaces apoC-III and apoC-I but not apoC-II",almost proportional to its concentration; also recorded: approximately proportional to its concentration,–,–,–,–,–
DYLKEVFEKLRDLYEKFTPAVSTYTGIFTDQVLSVLKGEE [Delta6PV],–,–,–,overcomes the inhibition of apoC-III,–,–,higher affinity for the VLDL than the apolipoproteins,–,–,reversed the inhibition of LPL by Triton,the TG increase was significantly reduced,the TG increase was significantly reduced,also displaced,displaced apoC-III in a dose-dependent matter
